Measured values from the kinase profiling compilation of Christmann-Franck et al. (2016).

Assays:
Assay in all cases: KINOMEscan competition binding
Settings in all cases: compound 10.0 µM
[1] = biological target: EPHA1 (human) (UniProt P21709)
[2] = biological target: SRPK2 (human) (UniProt P78362)
[3] = biological target: GSK3B (human) (UniProt P49841)
[4] = biological target: DCLK2 (human) (UniProt Q8N568)
[5] = biological target: MAPK15 (human) (UniProt Q8TD08)
[6] = biological target: PHKG1 (human) (UniProt Q16816)
[7] = biological target: CSNK1G1 (human) (UniProt Q9HCP0)
[8] = biological target: CDC42BPG (human) (UniProt Q6DT37)
[9] = biological target: PAK2 (human) (UniProt Q13177)
[10] = biological target: ZAP70 (human) (UniProt P43403)
[11] = biological target: CAMK2D (human) (UniProt Q13557)
[12] = biological target: ADCK4 (human) (UniProt Q96D53)
[13] = biological target: MAP3K13 (human) (UniProt O43283)
[14] = test system: RET (human), P07949 [V804L]
[15] = biological target: MELK (human) (UniProt Q14680)
[16] = biological target: RPS6KA2 KD2 (human) (UniProt Q15349)
[17] = biological target: HCK (human) (UniProt P08631)
[18] = biological target: MAP2K4 (human) (UniProt P45985)
[19] = biological target: CDK7 (human) (UniProt P50613)
[20] = biological target: PAK1 (human) (UniProt Q13153)
[21] = biological target: MKNK1 (human) (UniProt Q9BUB5)
[22] = biological target: ANKK1 (human) (UniProt Q8NFD2)
[23] = biological target: STK32A (human) (UniProt Q8WU08)
[24] = biological target: SGK110 (human) (UniProt P0C264)
[25] = biological target: EPHA2 (human) (UniProt P29317)
[26] = biological target: INSRR (human) (UniProt P14616)
[27] = biological target: MUSK (human) (UniProt O15146)
[28] = biological target: MAP4K3 (human) (UniProt Q8IVH8)
[29] = biological target: PRKCI (human) (UniProt P41743)
[30] = biological target: LTK (human) (UniProt P29376)
[31] = biological target: FER (human) (UniProt P16591)
[32] = biological target: PTK2B (human) (UniProt Q14289)
[33] = biological target: PLK1 (human) (UniProt P53350)
[34] = biological target: CDK8 (human) (UniProt P49336)
[35] = biological target: ALK (human) (UniProt Q9UM73)
[36] = biological target: DYRK1B (human) (UniProt Q9Y463)
[37] = biological target: PLK2 (human) (UniProt Q9NYY3)
[38] = biological target: MKNK2 (human) (UniProt Q9HBH9)
[39] = biological target: YSK4 (human) (UniProt Q56UN5)
[40] = biological target: RIOK1 (human) (UniProt Q9BRS2)

Chain of ADCK4 (human) (Q96D53 whole entry, looked up): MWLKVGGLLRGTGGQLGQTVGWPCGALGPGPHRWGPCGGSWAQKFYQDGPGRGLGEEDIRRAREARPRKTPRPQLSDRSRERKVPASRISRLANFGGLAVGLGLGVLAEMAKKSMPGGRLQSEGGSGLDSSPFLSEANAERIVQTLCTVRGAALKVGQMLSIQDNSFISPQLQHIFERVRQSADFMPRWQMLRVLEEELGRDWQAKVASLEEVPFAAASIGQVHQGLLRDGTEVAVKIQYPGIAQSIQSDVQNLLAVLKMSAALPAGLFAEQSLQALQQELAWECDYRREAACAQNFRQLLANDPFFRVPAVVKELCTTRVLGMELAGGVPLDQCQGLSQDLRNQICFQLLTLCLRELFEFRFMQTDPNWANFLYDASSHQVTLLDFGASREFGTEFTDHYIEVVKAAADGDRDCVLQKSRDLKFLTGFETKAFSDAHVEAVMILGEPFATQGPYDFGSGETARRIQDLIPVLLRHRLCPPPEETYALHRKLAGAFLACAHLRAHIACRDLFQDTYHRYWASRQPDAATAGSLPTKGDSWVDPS
Chain of CSNK1G1 (human) (Q9HCP0 whole entry, looked up): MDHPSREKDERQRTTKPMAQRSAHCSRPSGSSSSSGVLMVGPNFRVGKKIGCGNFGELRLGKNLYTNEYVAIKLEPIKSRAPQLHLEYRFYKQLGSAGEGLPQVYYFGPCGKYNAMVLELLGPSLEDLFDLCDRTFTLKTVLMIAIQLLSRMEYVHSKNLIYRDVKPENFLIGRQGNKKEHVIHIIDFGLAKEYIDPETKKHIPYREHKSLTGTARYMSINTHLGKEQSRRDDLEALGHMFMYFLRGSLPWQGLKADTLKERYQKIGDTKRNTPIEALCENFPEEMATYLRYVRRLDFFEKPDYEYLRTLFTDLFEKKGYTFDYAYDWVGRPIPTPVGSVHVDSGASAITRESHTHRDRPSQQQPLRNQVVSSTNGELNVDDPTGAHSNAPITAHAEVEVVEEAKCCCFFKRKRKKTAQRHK
Chain of MAP4K3 (human) (Q8IVH8 whole entry, looked up): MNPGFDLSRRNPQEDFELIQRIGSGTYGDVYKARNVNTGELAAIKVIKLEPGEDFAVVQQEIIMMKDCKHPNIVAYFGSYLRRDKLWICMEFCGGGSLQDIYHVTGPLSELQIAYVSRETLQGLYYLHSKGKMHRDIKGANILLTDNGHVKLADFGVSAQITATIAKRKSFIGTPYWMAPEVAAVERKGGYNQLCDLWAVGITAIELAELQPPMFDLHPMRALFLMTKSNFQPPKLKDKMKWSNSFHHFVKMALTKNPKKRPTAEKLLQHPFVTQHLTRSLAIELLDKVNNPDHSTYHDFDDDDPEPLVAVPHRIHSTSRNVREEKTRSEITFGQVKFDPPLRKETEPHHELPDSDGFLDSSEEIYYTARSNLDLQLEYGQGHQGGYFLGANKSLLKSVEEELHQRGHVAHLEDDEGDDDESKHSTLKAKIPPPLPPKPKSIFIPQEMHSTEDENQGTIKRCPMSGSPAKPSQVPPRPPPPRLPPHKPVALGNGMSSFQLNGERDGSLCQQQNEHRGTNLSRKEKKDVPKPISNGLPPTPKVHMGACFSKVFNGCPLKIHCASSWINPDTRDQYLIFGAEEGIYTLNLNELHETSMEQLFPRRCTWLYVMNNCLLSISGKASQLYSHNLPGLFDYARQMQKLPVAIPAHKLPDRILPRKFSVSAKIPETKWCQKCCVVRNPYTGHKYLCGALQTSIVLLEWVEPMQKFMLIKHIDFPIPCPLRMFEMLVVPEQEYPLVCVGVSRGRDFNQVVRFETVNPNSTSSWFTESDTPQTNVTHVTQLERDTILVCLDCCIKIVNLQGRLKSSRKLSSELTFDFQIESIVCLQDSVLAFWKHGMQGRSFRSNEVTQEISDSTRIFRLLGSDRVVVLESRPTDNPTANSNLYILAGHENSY
Chain of CAMK2D (human) (Q13557 whole entry, looked up): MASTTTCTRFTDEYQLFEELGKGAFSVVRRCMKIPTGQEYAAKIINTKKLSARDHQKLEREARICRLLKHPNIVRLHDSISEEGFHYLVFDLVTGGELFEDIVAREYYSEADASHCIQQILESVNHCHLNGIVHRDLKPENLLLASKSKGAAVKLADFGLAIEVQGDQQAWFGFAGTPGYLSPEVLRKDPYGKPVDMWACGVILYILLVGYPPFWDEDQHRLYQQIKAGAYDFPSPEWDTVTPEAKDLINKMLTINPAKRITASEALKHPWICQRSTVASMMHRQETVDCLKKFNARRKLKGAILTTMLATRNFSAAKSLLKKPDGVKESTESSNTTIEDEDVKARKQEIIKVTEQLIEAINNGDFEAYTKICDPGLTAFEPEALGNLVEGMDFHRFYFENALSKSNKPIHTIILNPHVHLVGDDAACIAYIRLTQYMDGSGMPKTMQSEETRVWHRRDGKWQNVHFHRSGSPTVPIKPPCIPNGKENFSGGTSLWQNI
Chain of PRKCI (human) (P41743 whole entry, looked up): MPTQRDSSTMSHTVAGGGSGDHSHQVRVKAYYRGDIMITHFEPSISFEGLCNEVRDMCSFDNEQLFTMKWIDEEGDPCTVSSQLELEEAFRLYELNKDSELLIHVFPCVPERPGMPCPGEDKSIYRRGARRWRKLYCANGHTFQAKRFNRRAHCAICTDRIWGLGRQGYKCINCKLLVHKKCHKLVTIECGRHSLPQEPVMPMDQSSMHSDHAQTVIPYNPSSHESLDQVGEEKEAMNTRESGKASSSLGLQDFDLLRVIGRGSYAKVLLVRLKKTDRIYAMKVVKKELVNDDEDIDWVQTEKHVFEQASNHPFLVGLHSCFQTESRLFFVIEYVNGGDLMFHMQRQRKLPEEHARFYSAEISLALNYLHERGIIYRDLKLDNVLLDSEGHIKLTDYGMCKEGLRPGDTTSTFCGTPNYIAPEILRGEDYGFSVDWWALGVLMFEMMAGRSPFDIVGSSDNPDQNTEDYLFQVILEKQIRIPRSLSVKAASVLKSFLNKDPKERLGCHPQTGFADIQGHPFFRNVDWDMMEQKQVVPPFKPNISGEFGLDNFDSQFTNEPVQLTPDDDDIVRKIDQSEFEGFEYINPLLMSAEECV
Chain of RPS6KA2 KD2 (human) (Q15349 whole entry, looked up): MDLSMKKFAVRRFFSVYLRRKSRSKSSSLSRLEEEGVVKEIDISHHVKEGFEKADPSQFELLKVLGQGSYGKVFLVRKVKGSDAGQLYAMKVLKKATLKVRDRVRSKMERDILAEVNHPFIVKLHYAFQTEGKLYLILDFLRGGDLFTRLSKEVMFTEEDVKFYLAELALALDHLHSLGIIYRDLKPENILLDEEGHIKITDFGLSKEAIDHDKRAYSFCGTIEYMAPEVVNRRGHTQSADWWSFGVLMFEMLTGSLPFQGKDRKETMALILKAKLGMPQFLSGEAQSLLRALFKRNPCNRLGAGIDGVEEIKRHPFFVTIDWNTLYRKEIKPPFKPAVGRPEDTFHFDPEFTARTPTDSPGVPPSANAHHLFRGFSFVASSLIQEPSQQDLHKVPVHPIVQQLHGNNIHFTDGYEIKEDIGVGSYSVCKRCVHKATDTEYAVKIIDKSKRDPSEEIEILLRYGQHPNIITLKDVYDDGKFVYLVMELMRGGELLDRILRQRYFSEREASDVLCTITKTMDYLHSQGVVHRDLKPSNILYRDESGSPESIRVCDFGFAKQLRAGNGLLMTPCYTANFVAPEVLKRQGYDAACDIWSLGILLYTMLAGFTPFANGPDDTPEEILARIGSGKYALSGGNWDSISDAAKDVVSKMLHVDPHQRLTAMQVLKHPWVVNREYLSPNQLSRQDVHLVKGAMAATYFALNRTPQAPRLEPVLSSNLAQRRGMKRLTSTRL
Chain of MAP2K4 (human) (P45985 whole entry, looked up): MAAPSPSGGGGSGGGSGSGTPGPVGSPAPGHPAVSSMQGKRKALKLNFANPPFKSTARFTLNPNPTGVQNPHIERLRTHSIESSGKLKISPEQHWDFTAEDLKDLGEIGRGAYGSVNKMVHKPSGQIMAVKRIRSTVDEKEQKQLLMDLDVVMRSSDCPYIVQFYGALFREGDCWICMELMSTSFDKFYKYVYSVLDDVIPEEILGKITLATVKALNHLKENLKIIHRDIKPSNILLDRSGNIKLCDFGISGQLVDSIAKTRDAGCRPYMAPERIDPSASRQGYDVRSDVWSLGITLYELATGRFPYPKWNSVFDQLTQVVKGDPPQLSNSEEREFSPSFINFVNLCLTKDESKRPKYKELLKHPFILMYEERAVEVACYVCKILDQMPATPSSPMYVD
Chain of ZAP70 (human) (P43403 whole entry, looked up): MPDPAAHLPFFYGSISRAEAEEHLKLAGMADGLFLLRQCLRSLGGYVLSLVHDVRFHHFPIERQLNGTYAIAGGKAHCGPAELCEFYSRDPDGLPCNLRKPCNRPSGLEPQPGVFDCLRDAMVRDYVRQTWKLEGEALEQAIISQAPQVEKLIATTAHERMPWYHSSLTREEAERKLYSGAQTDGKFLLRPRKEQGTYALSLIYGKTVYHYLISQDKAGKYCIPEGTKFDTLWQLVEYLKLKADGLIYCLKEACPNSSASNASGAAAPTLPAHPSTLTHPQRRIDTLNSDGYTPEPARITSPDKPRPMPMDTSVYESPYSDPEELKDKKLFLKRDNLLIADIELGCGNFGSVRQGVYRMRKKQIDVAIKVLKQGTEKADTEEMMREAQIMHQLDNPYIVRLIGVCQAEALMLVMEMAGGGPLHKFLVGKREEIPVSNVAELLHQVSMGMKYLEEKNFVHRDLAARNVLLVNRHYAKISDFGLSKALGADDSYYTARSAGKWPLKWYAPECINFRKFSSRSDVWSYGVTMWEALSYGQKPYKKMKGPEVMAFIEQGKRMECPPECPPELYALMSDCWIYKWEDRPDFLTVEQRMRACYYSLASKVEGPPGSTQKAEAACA

Compound `N#C/C(=C1/Nc2ccccc2S1)c1ccnc(NCCc2cccnc2)n1` has a kinase still bound, per cent of control [1] of 100%, a kinase still bound, per cent of control [2] of 86% and a kinase still bound, per cent of control [3] of 0.15%. The kinase still bound, per cent of control [4] was 100%, the kinase still bound, per cent of control [5] was 73% and the kinase still bound, per cent of control [6] was 100%. It also gave a kinase still bound, per cent of control [7] of 42%, a kinase still bound, per cent of control [8] of 89% and a kinase still bound, per cent of control [9] of 34%. The kinase still bound, per cent of control [10] was 100%, the kinase still bound, per cent of control [11] was 64% and the kinase still bound, per cent of control [12] was 45%. The kinase still bound, per cent of control [13] was 100%, the kinase still bound, per cent of control [14] was 100% and the kinase still bound, per cent of control [15] was 100%. The kinase still bound, per cent of control [16] was 56%, the kinase still bound, per cent of control [17] was 100% and the kinase still bound, per cent of control [18] was 1.1%. For the same compound, the kinase still bound, per cent of control [19] was 16%, the kinase still bound, per cent of control [20] was 77% and the kinase still bound, per cent of control [21] was 97%. For the same compound, the kinase still bound, per cent of control [22] was 5.6%, the kinase still bound, per cent of control [23] was 100% and the kinase still bound, per cent of control [24] was 100%. The kinase still bound, per cent of control [25] was 80%, the kinase still bound, per cent of control [26] was 100% and the kinase still bound, per cent of control [27] was 100%. The kinase still bound, per cent of control [28] was 80%, the kinase still bound, per cent of control [29] was 80% and the kinase still bound, per cent of control [30] was 100%. The kinase still bound, per cent of control [31] was 100%, the kinase still bound, per cent of control [32] was 89% and the kinase still bound, per cent of control [33] was 72%. It also gave a kinase still bound, per cent of control [34] of 100%, a kinase still bound, per cent of control [35] of 100% and a kinase still bound, per cent of control [36] of 23%. For the same compound, the kinase still bound, per cent of control [37] was 47%, the kinase still bound, per cent of control [38] was 0.5% and the kinase still bound, per cent of control [39] was 3.2%. The kinase still bound, per cent of control [40] was 30%.

`O=c1[nH]c2ccccc2n1C1CCN(Cc2ccc(-c3nc4cc5[nH]cnc5cc4nc3-c3ccccc3)cc2)CC1` showed a kinase still bound, per cent of control [1] of 100%, a kinase still bound, per cent of control [2] of 85% and a kinase still bound, per cent of control [3] of 89%. For the same compound, the kinase still bound, per cent of control [4] was 92%, the kinase still bound, per cent of control [5] was 100% and the kinase still bound, per cent of control [6] was 100%. The kinase still bound, per cent of control [7] was 100%, the kinase still bound, per cent of control [8] was 92% and the kinase still bound, per cent of control [9] was 74%. For the same compound, the kinase still bound, per cent of control [10] was 99%, the kinase still bound, per cent of control [11] was 100% and the kinase still bound, per cent of control [12] was 100%. The kinase still bound, per cent of control [13] was 100%, the kinase still bound, per cent of control [14] was 85% and the kinase still bound, per cent of control [15] was 77%. The kinase still bound, per cent of control [16] was 100%, the kinase still bound, per cent of control [17] was 90% and the kinase still bound, per cent of control [18] was 94%. The kinase still bound, per cent of control [19] was 82%, the kinase still bound, per cent of control [20] was 90% and the kinase still bound, per cent of control [21] was 77%. It also gave a kinase still bound, per cent of control [22] of 73%, a kinase still bound, per cent of control [23] of 66% and a kinase still bound, per cent of control [24] of 81%. The kinase still bound, per cent of control [25] was 100%, the kinase still bound, per cent of control [26] was 100% and the kinase still bound, per cent of control [27] was 100%. The kinase still bound, per cent of control [28] was 100%, the kinase still bound, per cent of control [29] was 79% and the kinase still bound, per cent of control [30] was 56%. It also gave a kinase still bound, per cent of control [31] of 83%, a kinase still bound, per cent of control [32] of 91% and a kinase still bound, per cent of control [33] of 93%. The kinase still bound, per cent of control [34] was 100%, the kinase still bound, per cent of control [35] was 37% and the kinase still bound, per cent of control [36] was 88%. For the same compound, the kinase still bound, per cent of control [37] was 88%, the kinase still bound, per cent of control [38] was 81% and the kinase still bound, per cent of control [39] was 75%. The kinase still bound, per cent of control [40] was 76%.

`C=CC(=O)Nc1ccc(C(=O)c2sc(Nc3ccc(N4CCN(C)CC4)cc3OC)nc2N)cc1` was tested, and the kinase still bound, per cent of control [1] was 100%, the kinase still bound, per cent of control [2] was 95% and the kinase still bound, per cent of control [3] was 100%. For the same compound, the kinase still bound, per cent of control [4] was 28%, the kinase still bound, per cent of control [5] was 75% and the kinase still bound, per cent of control [6] was 7.4%. The kinase still bound, per cent of control [7] was 18%, the kinase still bound, per cent of control [8] was 93% and the kinase still bound, per cent of control [9] was 68%. The kinase still bound, per cent of control [10] was 20%, the kinase still bound, per cent of control [11] was 2.1% and the kinase still bound, per cent of control [12] was 45%. The kinase still bound, per cent of control [13] was 100%, the kinase still bound, per cent of control [14] was 100% and the kinase still bound, per cent of control [15] was 87%. For the same compound, the kinase still bound, per cent of control [16] was 0.25%, the kinase still bound, per cent of control [17] was 100% and the kinase still bound, per cent of control [18] was 24%. It also gave a kinase still bound, per cent of control [19] of 5.8%, a kinase still bound, per cent of control [20] of 73% and a kinase still bound, per cent of control [21] of 34%. It also gave a kinase still bound, per cent of control [22] of 100%, a kinase still bound, per cent of control [23] of 52% and a kinase still bound, per cent of control [24] of 100%. The kinase still bound, per cent of control [25] was 96%, the kinase still bound, per cent of control [26] was 78% and the kinase still bound, per cent of control [27] was 100%. The kinase still bound, per cent of control [28] was 60%, the kinase still bound, per cent of control [29] was 26% and the kinase still bound, per cent of control [30] was 5.6%. It also gave a kinase still bound, per cent of control [31] of 82%, a kinase still bound, per cent of control [32] of 42% and a kinase still bound, per cent of control [33] of 45%. The kinase still bound, per cent of control [34] was 100%, the kinase still bound, per cent of control [35] was 8.4% and the kinase still bound, per cent of control [36] was 2.6%. For the same compound, the kinase still bound, per cent of control [37] was 81%, the kinase still bound, per cent of control [38] was 29% and the kinase still bound, per cent of control [39] was 70%. For the same compound, the kinase still bound, per cent of control [40] was 37%.
